Laboratory results taken from the supplement of paper PMC11451515.

How the values were obtained:
Details in all cases: 48 h
SEM cells [1] = assay: AUC of viability dose-response curve (% viability x log10 dose units); higher = less sensitive
In short: (§1)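 Leukemia cells adapted to each medium were seeded at 500 or 1000 cells/well in 1536-well plates and dosed with library compounds in DMSO at 11 threefold doses from 47 μM to 0.79 nM for 48 h at 37°C. CellTiter-Glo One luminescence was normalised per plate to DMSO and cell-free wells, then fitted with a four-parameter log-logistic model over log10 doses. Area under the curve was taken from this fit by the trapezoidal rule, with curves above full viability scaled and curves failing quality control removed.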

P12-Ichikawa [2] = assay: as above
In short: as §1

NOMO1 [3] = assay: as above
In short: as §1

SEM cells [4] = assay: cell viability relative to DMSO control; higher = less cytotoxic
In short: (§2)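 Three leukemia lines were tested: NOMO1 and SEM at 500 cells/well and P12-Ichikawa at 1000 cells/well. Each was adapted for at least four passages in each medium and seeded in 5 μl in 1536-well plates, and library compounds in DMSO were pin-dosed from 47 μM to 0.79 nM in 11 threefold steps. After 48 h at 37°C, CellTiter-Glo One luminescence was read. Viability is a percentage relative to DMSO wells on each plate, with cell-free wells as background.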

P12-Ichikawa [5] = assay: as above
In short: as §2

NOMO1 [6] = assay: as above
In short: as §2

Cn1c(=O)c2[nH]cnc2n(C)c1=O
AUC of viability dose-response curve
Details | NOMO1 [3] | P12-Ichikawa [2] | SEM cells [1]
HPLM + 10% dialyzed FBS | 464 | 473 | 474
RPMI 5 mM glucose + 10% FBS | 454 | 463 | 454
RPMI 5 mM glucose + 10% dialyzed FBS | 457 | 468 | 477

cell viability [%]
Details | NOMO1 [6] | P12-Ichikawa [5] | SEM cells [4]
HPLM + 10% dialyzed FBS, 0.000781 µM | 120 | 104 | 102
HPLM + 10% dialyzed FBS, 0.00234 µM | 111 | 113 | 112
HPLM + 10% dialyzed FBS, 0.00702 µM | 121 | 116 | 107
HPLM + 10% dialyzed FBS, 0.0211 µM | 122 | 114 | 109
HPLM + 10% dialyzed FBS, 0.0632 µM | 92.5 | 111 | 108
HPLM + 10% dialyzed FBS, 0.19 µM | 115 | 110 | 110
HPLM + 10% dialyzed FBS, 0.569 µM | 120 | 116 | 98.6
HPLM + 10% dialyzed FBS, 1.71 µM | 106 | 109 | 117
HPLM + 10% dialyzed FBS, 5.12 µM | 110 | 114 | 105
HPLM + 10% dialyzed FBS, 15.4 µM | 102 | 106 | 110
HPLM + 10% dialyzed FBS, 46.1 µM | 84.8 | 104 | 102
RPMI 5 mM glucose + 10% FBS, 0.000781 µM | 114 | 112 | 104
RPMI 5 mM glucose + 10% FBS, 0.00234 µM | 103 | 113 | 107
RPMI 5 mM glucose + 10% FBS, 0.00702 µM | 103 | 115 | 110
RPMI 5 mM glucose + 10% FBS, 0.0211 µM | 104 | 117 | 98.1
RPMI 5 mM glucose + 10% FBS, 0.0632 µM | 94 | 109 | 98.2
RPMI 5 mM glucose + 10% FBS, 0.19 µM | 100 | 115 | 103
RPMI 5 mM glucose + 10% FBS, 0.569 µM | 101 | 124 | 99.7
RPMI 5 mM glucose + 10% FBS, 1.71 µM | 113 | 106 | 94.8
RPMI 5 mM glucose + 10% FBS, 5.12 µM | 95.8 | 112 | 110
RPMI 5 mM glucose + 10% FBS, 15.4 µM | 99 | 108 | 99
RPMI 5 mM glucose + 10% FBS, 46.1 µM | 93.6 | 105 | 97.2
RPMI 5 mM glucose + 10% dialyzed FBS, 0.000781 µM | 101 | 115 | 98.8
RPMI 5 mM glucose + 10% dialyzed FBS, 0.00234 µM | 108 | 111 | 126
RPMI 5 mM glucose + 10% dialyzed FBS, 0.00702 µM | 104 | 113 | 102
RPMI 5 mM glucose + 10% dialyzed FBS, 0.0211 µM | 100 | 107 | 115
RPMI 5 mM glucose + 10% dialyzed FBS, 0.0632 µM | 108 | 111 | 124
RPMI 5 mM glucose + 10% dialyzed FBS, 0.19 µM | 96.3 | 116 | 113
RPMI 5 mM glucose + 10% dialyzed FBS, 0.569 µM | 92.2 | 107 | 106
RPMI 5 mM glucose + 10% dialyzed FBS, 1.71 µM | 99.7 | 108 | 114
RPMI 5 mM glucose + 10% dialyzed FBS, 5.12 µM | 106 | 111 | 105
RPMI 5 mM glucose + 10% dialyzed FBS, 15.4 µM | 97.5 | 99.7 | 124
RPMI 5 mM glucose + 10% dialyzed FBS, 46.1 µM | 87.7 | 94.2 | 104
